Publication PMC9990178 (Cell Chemical Biology, 2023)

Tests used:
[1] = tested on: pulmonary fibrosis induced by N protein of the Omicron variant; type: in vivo; settings: mice, AAV encoding Omicron N protein
[2] = tested on: Smad3 phosphorylation, α-SMA, COL1A1; type: cell-based, mouse; settings: Alpha, Beta, Gamma, Delta, Omicron N protein; 20 μM, 36 h

## O=c1c(O)c(N2CCN(Cc3ccc(Br)cc3F)CC2)oc2ccccc12 [RMY-205, 2-(4-(4-bromo-2-fluorobenzyl)piperazin-1-yl)-3-hydroxy-4H-chromen-4-one]
[1]
  pro-fibrotic effects of N protein of the Omicron variant: effectively suppressed
[2]
  Smad3 phosphorylation induced by N protein variants: abolished
  α-SMA and COL1A1 expression induced by N protein variants: suppression
